# Data as given in patent US20090131481A1, “Transcription Factor Modulating Compounds and Methods of Use Thereof” (Paratek Pharmaceuticals, Inc., published 2009).
# Read-outs that look alike come from different tables or passages of the source.
# Tests used:
# SlyA = target: T1, SlyA (Escherichia coli, UniProt P0A8W2); assay: biochemical; assay type: binding, E. coli
# T1 sequence (P0A8W2 1-144): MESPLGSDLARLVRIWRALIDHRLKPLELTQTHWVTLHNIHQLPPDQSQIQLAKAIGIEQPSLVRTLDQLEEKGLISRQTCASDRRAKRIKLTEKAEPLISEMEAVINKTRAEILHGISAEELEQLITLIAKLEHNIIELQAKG
# ExsA = target: T2, ExsA (Pseudomonas aeruginosa, UniProt P26993); assay: Chemiluminescence-based ExsA-DNA binding assay; set-up: species or system P. aeruginosa
# T2 construct: made in house
# T2 sequence (P26993 1-278): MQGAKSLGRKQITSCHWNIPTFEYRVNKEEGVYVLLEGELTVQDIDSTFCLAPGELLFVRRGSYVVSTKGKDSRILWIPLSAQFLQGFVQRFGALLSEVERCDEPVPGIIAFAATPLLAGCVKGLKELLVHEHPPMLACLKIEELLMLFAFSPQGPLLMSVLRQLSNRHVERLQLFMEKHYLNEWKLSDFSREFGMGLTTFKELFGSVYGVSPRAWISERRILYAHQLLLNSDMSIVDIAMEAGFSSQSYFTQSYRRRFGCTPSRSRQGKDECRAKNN
# LcrF (VirF) = LcrF (VirF) (Yersinia pestis, UniProt P28808); assay: biochemical; assay type: binding, Y. pseudotuberculosis
# P. aeruginosa = P. aeruginosa cytotoxicity whole cell assay (J774 cells, LDH release); settings: relative to vehicle treated cells infected with wild type P. aeruginosa
# SoxS [1] = target: T3, SoxS (Escherichia coli, UniProt P0A9E2); assay: Electrophoretic mobility shift assay (EMSA) with SoxS; assay type: binding; settings: 50 ug/ml compound, 5 nM SoxS
# T3 sequence (P0A9E2 1-107): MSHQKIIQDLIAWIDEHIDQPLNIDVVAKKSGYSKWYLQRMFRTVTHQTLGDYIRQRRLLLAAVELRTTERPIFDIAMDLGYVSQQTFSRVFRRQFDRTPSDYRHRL
# uncut plasmid DNA = assay: Qualitative agarose gel DNA intercalation assay; assay type: binding; settings: 100 ng uncut plasmid DNA, compared with a known DNA intercalator
# SoxS [2] = target: T3, SoxS; assay: Chemiluminescence-based SoxS-DNA binding assay; set-up: made in house; species or system E. coli; settings: for EC50: dose response analysis (footnote c), read-out: in vitro SoxS activity: concentration necessary to inhibit DNA-protein binding by 50% (EC50)
# E. coli UPEC strain C189 = assay: Ascending pyelonephritis model of infection (Example 3); assay type: in vivo; settings: female CD1 mice, oral dosing at infection and once a day for 4 days, 5-day infection
# [3] = EC50 for inhibition of LcrF(VirF)-DNA binding
# [4] = read-out: % Inhibition (SoxS binding to DNA)
# Chain of LcrF (VirF) (P28808 whole entry, looked up): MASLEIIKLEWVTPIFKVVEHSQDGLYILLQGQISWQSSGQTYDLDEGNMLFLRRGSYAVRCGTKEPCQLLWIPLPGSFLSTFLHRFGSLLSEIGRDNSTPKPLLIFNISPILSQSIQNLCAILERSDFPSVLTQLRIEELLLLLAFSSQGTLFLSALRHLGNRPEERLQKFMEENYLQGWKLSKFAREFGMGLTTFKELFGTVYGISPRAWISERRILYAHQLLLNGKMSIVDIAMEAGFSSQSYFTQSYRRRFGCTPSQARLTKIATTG
smiles,measurement,setting,value
"CC(=O)c1ccc(/C=C/C(=O)Nc2ccc(-c3nc4ccc([N+](=O)[O-])cc4n3O)cc2)cc1 [AJ, (E)-3-(4-Acetyl-phenyl)-N-[4-(1-hydroxy-6-nitro-H-benzoimidazol-2-yl)-phenyl]-acrylamide]",EC50,SlyA,> 15.1 µM
same,EC50,"ExsA; Table 11, subsequent assay, read-out: P. aeruginosa ExsA EC50",< 5 µM
same,EC50,LcrF (VirF); [3],10 to 25 µM
same,EC50,LcrF (VirF); Y. pseudotuberculosis VirF EC50,< 5 µM
same,Cytotoxicity at 50 μg/mL Pseudomonas,P. aeruginosa,"** (reduced P. aeruginosa cytotoxicity below 75% of untreated, wild type levels at 50 mg/mL)"
O=[N+]([O-])c1ccc2nc(-c3ccco3)n(O)c2c1 [AU],activity against SoxS in vitro in an EMSA,SoxS [1],very active
same,ability to intercalate DNA,uncut plasmid DNA,not found to intercalate DNA
O=C(Nc1ccc(-c2nc3ccc([N+](=O)[O-])cc3n2O)cc1)c1ccccc1 [A],EC50,"ExsA; Table 7, cell-free system, read-out: ExsA EC50",10 to 25 µM
same,EC50,LcrF (VirF); [3],10 to 25 µM
same,inhibition at 50 µg/mL,SoxS [2]; [4],> 70%
NC(=O)c1ccc2nc(-c3ccccc3)n(O)c2c1 [BB],activity against SoxS in vitro in an EMSA,SoxS [1],moderately active
same,inhibition at 50 µg/mL,SoxS [2]; [4],0 to 29%
CN(C)c1ccc2nc(-c3ccccc3)n(O)c2c1 [BF],inhibition at 50 µg/mL,SoxS [2]; [4],0 to 29%
O=[N+]([O-])c1ccc2nc(-c3ccc(O)cc3)n(O)c2c1 [BG],inhibition at 50 µg/mL,SoxS [2]; [4],30 to 69%
CC(C)(C)c1ccc2nc(-c3ccccc3)n(O)c2c1 [BH],inhibition at 50 µg/mL,SoxS [2]; [4],< 0%
CS(=O)(=O)c1ccc2nc(-c3ccccc3)n(O)c2c1 [BI],inhibition at 50 µg/mL,SoxS [2]; [4],30 to 69%
CC(=NO)c1ccc2nc(-c3ccccc3)n(O)c2c1 [BJ],inhibition at 50 µg/mL,SoxS [2]; [4],30 to 69%
NC(=O)c1ccc2nc(-c3ccco3)n(O)c2c1 [BK],activity against SoxS in vitro in an EMSA,SoxS [1],lacked activity
Nc1ccc(-c2nc3ccc([N+](=O)[O-])cc3n2O)cc1 [BL],inhibition at 50 µg/mL,SoxS [2]; [4],> 70%
Nc1ccccc1-c1nc2ccc([N+](=O)[O-])cc2n1O [BN],inhibition at 50 µg/mL,SoxS [2]; [4],0 to 29%
Nc1cccc(-c2nc3ccc([N+](=O)[O-])cc3n2O)c1 [BO],inhibition at 50 µg/mL,SoxS [2]; [4],30 to 69%
same,inhibition at 50 µg/mL,SoxS [2]; read-out: in vitro SoxS activity: percent inhibition of DNA-protein binding,< 29%
CN(C)c1ccc(-c2nc3ccc([N+](=O)[O-])cc3n2O)cc1 [BP],Efficacy (log10 decrease in the CFU/g kidney tissue),E. coli UPEC strain C189,*** (exhibited a 0-1.0 log decrease in CFU/g)
same,ability to intercalate DNA,uncut plasmid DNA,not found to intercalate DNA
same,EC50,SoxS [2],> 5 µM
same,inhibition at 50 µg/mL,SoxS [2]; [4],> 70%
COn1c(-c2ccccc2)nc2ccc([N+](=O)[O-])cc21 [BR],inhibition at 50 µg/mL,SoxS [2]; [4],0 to 29%
O=C(O)Cn1c(-c2nc3ccc([N+](=O)[O-])cc3n2O)nc2ccccc21 [BS],Efficacy (log10 decrease in the CFU/g kidney tissue),E. coli UPEC strain C189,*** (exhibited a 0-1.0 log decrease in CFU/g)
same,EC50,SoxS [2],1 to 4.9 µM
CC(=O)Nc1cccc(-c2nc3ccc([N+](=O)[O-])cc3n2O)c1 [BT],inhibition at 50 µg/mL,SoxS [2]; [4],30 to 69%
O=C(O)c1cccc(-c2nc3ccc([N+](=O)[O-])cc3n2O)c1 [BU],Efficacy (log10 decrease in the CFU/g kidney tissue),E. coli UPEC strain C189,*** (exhibited a 0-1.0 log decrease in CFU/g)
same,EC50,SoxS [2],> 5 µM
CN(C)c1cccc(-c2nc3ccc([N+](=O)[O-])cc3n2O)c1 [BV],inhibition at 50 µg/mL,SoxS [2]; [4],0 to 29%
O=[N+]([O-])c1ccc2nc(-c3ccc(Oc4ccccc4)cc3)n(O)c2c1 [BW],inhibition at 50 µg/mL,SoxS [2]; [4],0 to 29%
